US20250041272A1, “COMPOSITIONS AND METHODS FOR TREATING CANCER VIA PTP1B INHIBITION” (priority 2021, published 2025)

How the values were obtained:
[1] = system: MyD88 protein in macrophages; assay: Immunofluorescent staining of M1 macrophages cultured in B16F10 conditioned medium; format: cell-based, mouse; details: 24 hours
Procedure: Immunofluorescence staining and quantitation. After treatments, mouse macrophages were fixed with 4% formaldehyde (Electron Microscopy Sciences) and permeabilized with acetone (Fisher scientific). Samples were blocked using BlockAid blocking solution (Thermofisher scientific), were incubated with primary antibodies to MyD88 (Cell signaling), CD86 (Biolegend) and total STAT1 (Cell signaling) and Alexa Fluor 488-labeled secondary antibody (LifeTech) and were mounted with SlowFade Gold Antifade Mountant with DAPI (Invitrogen). Images were taken with using a BZ-X810 all-in-one fluorescence microscope (Keyence). Fluorescence intensity was measured with BZ-X800 software while colocalization was analyzed using ImageJ software with JACoP plugin (NIH)

[2] = biological target: T1, ternary complex of PTP1b with Mer and Stat1 (Mus musculus, UniProt P35821); assay: Co-immunoprecipitation of PTP1b or Stat1 from macrophages co-cultured with B16F10 cells; format: cell-based
T1 construct: endogenous in cells; host or cells: Primary peritoneal macrophages from C57BL/6J mice, stimulated with IFNγ and LPS and co-cultured with B16F10 melanoma cells
T1 sequence (P35821 1-432): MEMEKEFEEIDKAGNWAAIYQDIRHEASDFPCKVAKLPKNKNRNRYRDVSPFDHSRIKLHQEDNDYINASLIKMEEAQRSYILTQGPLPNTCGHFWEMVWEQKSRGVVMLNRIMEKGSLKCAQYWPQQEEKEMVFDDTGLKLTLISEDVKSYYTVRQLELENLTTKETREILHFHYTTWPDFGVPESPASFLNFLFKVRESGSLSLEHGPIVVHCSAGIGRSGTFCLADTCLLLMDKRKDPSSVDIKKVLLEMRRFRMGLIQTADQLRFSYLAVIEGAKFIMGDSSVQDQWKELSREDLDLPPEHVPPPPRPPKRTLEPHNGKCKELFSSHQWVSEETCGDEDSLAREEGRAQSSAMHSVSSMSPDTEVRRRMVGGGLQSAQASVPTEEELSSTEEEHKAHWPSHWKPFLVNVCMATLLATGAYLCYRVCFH
Procedure: Coimmunoprecipitation and Western blot. Coimmunoprecipitation was performed using […] A/G agarose beads (Santa Cruz Biotechnology Inc.) and antibodies for PTP1b (Abcam) or STAT1 (Cell signaling). Samples were incubated for 3 days at 4° C. under rotation and washed three times with RIPA buffer before loading them in 10% Mini-PROTEAN TGX stain-free gels (Biorad). After running the electrophoresis in the Mini-PROTEAN Tetra System (Bio-Rad) proteins were transferred to a 0.2-μm nitrocellulose Trans-Blot Mini Turbo Transfer Pack (Bio-Rad) using a Trans-Blot Turbo Transfer System (Bio-Rad). Membranes were blocked with 5% BSA (Fisher scientific) for 1 hour and blotted with antibodies against MyD88 (Cell Signaling), total STAT1 (Cell Signaling), tyrosine 701 phosphorylated STAT1 (Cell signaling), serine 727 phosphorylated STAT1 (Cell signaling), PTP1 b (Abcam) and Mer (Thermo Fisher scientific). Detection was performed with the ECL HPR-linked anti-rabbit antibody (Cell signaling) and the Clarity-Max Western ECL substrate (Bio-Rad). Blots were imaging with ChemiDoc MP Imaging System (Bio-Rad) and quantitated using ImageJ software (NIH).

LLC tumors = assay: Subcutaneous LLC tumor model; format: in vivo, mouse
Procedure: Tumor implantation, treatment and harvest. For animal studies, 1*10^5 B16F10 luciferase-tagged melanoma cells, 1*10^6 GEMM6 melanoma cells or 2*10^6 LCC cells were implanted subcutaneously into C57BL/6J mice (randomized, both males and females, 000664 The Jackson laboratory). When indicated, mice received intraperitoneal injections 7 days after implantation with 100 μl of 5 mg/kg cisplatin (Tocris), 100 μl of 10 mg/kg BVT948 (Tocris) or 100 μl of 30 mg/kg of vemurafenib. 5 mice were used per experimental group and tumors were harvested when they reached 1.5 cm in any direction.
Immunohistochemistry analysis. Immunohistochemistry assay was carried out in formalin-fixed, paraffin-embedded 4 μm sections using primary antibodies against F4:80 (AbD Serotec), CD11b (Abcam), CD4 (eBioscience) or CD8a (eBioscience) on a Discovery Ultra Automated IHC staining system (Ventana). Sections were then imaged using a ScanScope XT microscope (Aperio) and quantified using Aperio software.

[3] = co-immunoprecipitation of Stat1, 24 hours

## BVT948
[1]
  MyD88 protein level and localization: increased MyD88
[2]; co-immunoprecipitation of PTP1b, in the presence of B16F10 cells
  association of PTP1b with Mer and Stat1: reduced the association
[2]; [3]
  Stat1 S727 phosphorylation: restoration of Stat1 S727 phosphorylation
  ternary complex formation: reduced ternary complex formation
LLC tumors; BVT948 10 mg/kg or Cisplatin 5 mg/kg intraperitoneal, treatment from 50 mm^3
  LLC tumor growth reduction, monotherapy: 30%
LLC tumors; BVT948 in combination with Cisplatin
  decrease in LLC tumor growth, combination: roughly 50%
LLC tumors; BVT948 monotherapy, LLC tumors
  tumor viability (H&E staining): not significantly changed
